According to US8134007B2, “Pyridine derivatives” (Pfizer Inc., priority 2007, dated 2012):
Like-named read-outs stand apart in the source and are kept apart here.

How the values were obtained:
Type in all cases: cell-based
[1] = biological target: T1, Human Nav1.5 (Homo sapiens, UniProt Q14524); assay: Nav1.5 Assay (VIPR, HEK293 cells)
T1 construct: expressed in transfected cells; host or cells: HEK293
Protocol: The Nav1.5 assay is performed in HEK293 cells expressing Human Nav1.5 in the same way as the Nav1.8 assay.
Where replicate experiments were conducted resulting in multiple sets of data for a test compound, the data presented represent the average value from all replicate experiments.

[2] = biological target: T2, Human Nav1.8 (Homo sapiens, UniProt Q9Y5Y9); assay: VIPR Assay for Nav1.8 Compounds (FRET membrane potential, deltamethrin opener)
T2 construct: expressed in transfected cells; host or cells: HEK293
T2 sequence (Q9Y5Y9 whole entry): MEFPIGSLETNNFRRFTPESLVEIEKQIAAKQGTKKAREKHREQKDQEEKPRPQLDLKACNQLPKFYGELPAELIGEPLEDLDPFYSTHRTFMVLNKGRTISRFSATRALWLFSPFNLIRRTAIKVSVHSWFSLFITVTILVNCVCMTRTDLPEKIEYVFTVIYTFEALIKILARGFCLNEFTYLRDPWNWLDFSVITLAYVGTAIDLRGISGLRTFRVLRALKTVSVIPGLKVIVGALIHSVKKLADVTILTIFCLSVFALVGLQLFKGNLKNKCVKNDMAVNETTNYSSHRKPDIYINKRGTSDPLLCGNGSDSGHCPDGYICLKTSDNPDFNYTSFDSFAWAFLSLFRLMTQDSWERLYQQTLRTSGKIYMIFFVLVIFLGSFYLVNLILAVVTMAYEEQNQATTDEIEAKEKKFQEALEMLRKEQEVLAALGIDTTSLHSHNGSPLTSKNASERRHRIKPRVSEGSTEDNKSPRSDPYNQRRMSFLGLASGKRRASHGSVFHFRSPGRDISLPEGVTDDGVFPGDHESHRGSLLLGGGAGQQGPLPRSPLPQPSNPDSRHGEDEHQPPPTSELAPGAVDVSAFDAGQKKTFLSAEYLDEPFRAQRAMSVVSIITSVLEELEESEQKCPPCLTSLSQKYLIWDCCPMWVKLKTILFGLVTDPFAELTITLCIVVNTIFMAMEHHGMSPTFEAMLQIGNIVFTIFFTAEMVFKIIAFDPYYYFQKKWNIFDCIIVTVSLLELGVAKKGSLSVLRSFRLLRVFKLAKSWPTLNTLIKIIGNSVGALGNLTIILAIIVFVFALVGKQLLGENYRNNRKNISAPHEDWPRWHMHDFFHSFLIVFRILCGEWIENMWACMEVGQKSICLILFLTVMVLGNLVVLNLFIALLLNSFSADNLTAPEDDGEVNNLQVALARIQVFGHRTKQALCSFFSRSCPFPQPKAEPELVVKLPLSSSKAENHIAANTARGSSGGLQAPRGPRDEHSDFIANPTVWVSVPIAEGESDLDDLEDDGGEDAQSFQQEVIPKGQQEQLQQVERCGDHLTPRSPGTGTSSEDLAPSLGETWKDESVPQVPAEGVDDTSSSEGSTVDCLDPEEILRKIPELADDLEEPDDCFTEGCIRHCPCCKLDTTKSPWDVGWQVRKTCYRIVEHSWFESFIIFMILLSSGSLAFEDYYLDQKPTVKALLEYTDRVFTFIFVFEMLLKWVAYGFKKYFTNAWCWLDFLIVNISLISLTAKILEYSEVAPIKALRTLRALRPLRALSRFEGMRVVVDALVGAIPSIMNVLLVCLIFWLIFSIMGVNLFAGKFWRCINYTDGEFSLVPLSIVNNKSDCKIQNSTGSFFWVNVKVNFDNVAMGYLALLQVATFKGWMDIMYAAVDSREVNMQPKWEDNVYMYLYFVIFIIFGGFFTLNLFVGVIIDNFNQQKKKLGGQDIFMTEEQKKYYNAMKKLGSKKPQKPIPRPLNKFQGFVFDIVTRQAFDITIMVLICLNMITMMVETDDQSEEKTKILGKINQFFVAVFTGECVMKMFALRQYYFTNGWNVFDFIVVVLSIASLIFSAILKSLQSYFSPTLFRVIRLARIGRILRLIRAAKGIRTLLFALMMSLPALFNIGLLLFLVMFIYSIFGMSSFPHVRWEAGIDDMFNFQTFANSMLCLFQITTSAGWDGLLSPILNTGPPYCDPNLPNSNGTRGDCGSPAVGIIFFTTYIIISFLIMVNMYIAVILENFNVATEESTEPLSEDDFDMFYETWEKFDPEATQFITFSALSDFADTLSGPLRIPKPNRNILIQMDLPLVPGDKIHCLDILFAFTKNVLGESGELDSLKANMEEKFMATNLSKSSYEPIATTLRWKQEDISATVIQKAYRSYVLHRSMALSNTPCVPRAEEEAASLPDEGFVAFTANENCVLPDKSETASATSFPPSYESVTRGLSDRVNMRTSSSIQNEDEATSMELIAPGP

[3] = tested on: tetrodotoxin-sensitive voltage-gated sodium channels including NaV1.2, NaV1.3 and NaV1.7; assay: TTX-S Assay (VIPR, SHSY-5Y cell line, veratridine opener); conditions: read-out: TTX-S IC50, veratridine 50 μM opener, average of replicates
[4] = HEK293 cells expressing Human Nav1.5, average of replicates, read-out: Nav1.5 IC50
[5] = VIPR FRET membrane potential assay, deltamethrin opener, average of replicates, read-out: Nav1.8 IC50

T1 sequence (Q14524 whole entry): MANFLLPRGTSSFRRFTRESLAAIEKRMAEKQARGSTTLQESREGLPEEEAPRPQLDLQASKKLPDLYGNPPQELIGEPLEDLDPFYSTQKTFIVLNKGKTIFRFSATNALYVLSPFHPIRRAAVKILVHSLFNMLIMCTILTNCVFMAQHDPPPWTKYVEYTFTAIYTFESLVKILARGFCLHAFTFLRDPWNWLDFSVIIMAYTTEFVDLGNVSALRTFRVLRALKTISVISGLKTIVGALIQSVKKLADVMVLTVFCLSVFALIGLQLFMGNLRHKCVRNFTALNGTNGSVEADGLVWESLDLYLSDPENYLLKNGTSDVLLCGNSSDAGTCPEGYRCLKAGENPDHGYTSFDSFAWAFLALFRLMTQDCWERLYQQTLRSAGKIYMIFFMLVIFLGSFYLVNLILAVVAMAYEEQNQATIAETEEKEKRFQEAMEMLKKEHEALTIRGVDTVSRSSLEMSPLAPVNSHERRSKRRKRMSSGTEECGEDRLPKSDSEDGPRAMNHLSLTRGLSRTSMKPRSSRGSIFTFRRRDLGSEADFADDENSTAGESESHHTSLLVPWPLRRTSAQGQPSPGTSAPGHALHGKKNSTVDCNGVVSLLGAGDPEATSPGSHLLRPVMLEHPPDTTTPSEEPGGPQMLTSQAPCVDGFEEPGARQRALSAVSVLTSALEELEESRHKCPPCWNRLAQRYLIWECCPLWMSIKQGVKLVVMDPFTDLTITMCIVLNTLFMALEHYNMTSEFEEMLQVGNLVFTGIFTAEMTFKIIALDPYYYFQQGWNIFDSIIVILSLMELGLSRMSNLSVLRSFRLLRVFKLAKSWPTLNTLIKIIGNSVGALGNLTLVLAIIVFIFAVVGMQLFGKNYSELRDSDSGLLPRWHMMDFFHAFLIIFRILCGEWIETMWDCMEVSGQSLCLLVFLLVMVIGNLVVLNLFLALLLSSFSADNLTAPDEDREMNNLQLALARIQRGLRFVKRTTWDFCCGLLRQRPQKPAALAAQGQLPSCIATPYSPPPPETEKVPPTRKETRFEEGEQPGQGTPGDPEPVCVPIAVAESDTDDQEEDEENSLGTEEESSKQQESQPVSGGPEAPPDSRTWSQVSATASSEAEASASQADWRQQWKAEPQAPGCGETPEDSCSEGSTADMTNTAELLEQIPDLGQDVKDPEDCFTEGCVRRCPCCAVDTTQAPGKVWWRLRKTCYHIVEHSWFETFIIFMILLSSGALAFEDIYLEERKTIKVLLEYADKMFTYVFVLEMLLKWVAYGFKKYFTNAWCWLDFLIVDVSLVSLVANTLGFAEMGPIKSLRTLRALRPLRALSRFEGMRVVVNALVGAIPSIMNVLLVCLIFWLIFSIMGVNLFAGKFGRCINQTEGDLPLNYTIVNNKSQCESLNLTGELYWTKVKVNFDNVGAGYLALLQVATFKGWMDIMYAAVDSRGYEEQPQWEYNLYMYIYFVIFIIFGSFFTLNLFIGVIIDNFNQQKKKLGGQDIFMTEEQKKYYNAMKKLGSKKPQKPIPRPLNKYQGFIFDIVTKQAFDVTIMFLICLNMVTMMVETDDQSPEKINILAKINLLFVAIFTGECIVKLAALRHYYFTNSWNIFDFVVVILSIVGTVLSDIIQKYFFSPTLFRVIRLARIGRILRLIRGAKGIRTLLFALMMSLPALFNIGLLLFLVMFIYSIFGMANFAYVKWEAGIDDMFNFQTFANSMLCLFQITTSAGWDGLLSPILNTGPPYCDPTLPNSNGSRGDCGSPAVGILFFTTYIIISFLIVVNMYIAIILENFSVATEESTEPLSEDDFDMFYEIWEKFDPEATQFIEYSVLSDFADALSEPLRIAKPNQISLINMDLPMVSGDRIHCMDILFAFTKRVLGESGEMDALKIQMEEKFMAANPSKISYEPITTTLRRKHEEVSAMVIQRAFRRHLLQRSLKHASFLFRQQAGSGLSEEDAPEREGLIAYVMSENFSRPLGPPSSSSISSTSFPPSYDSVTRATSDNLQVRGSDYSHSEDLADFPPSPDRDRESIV

| SMILES | IC50 [1, 4] | IC50 [2, 5] | IC50 [3] | IC50 [1] | IC50 [2] |
| --- | --- | --- | --- | --- | --- |
| COc1ccc(OC(F)(F)F)c(-c2ccc(NC(=O)c3ccnn3C)nc2N)c1 [Example 140] | 18 µM | 0.43 µM | – | – | – |
| Cc1nonc1C(=O)Nc1ccc(-c2ccccc2Cl)c(N)n1 [Example 46, N-[6-Amino-5-(2-chlorophenyl)pyridin-2-yl]-4-methyl-1,2,5-oxadiazole-3-carboxamide] | – | 1.2 µM | 30 µM | – | – |
| Cc1nocc1C(=O)Nc1ccc(-c2ccccc2OCC(F)(F)F)c(N)n1 [Example 134] | 18 µM | 0.41 µM | – | – | – |
| CC(C)COc1ccccc1-c1ccc(NC(=O)c2ccnn2C)nc1N [Example 131] | 18 µM | 0.64 µM | – | – | – |
| Cc1oncc1C(=O)Nc1ccc(-c2cc(Cl)cc(Cl)c2Cl)c(N)n1 [Example 22, N-[6-Amino-5-(2,3,5-trichlorophenyl)pyridin-2-yl]-5-methylisoxazole-4-carboxamide] | 4.6 µM | 1 µM | – | – | – |
| CCCOc1ccc(F)cc1-c1ccc(NC(=O)c2ccnn2C)nc1N [Example 136] | 27 µM | 0.6 µM | – | – | – |
| COCc1ccc(Cl)c(-c2ccc(NC(=O)c3conc3C)nc2N)c1 [Example 138] | 23 µM | 1 µM | – | – | – |
| COc1cccc(-c2ccc(NC(=O)c3ccnn3C)nc2N)c1OC [Example 125] | – | – | – | > 32 µM | 25 µM |
| COCCOc1ccccc1-c1ccc(NC(=O)c2ccnn2C)nc1N [Example 155] | > 32 µM | 18 µM | – | – | – |
| COc1cccc(-c2ccc(NC(=O)c3conc3C)nc2N)c1OC [Example 133] | > 32 µM | 2.9 µM | – | – | – |
| COCCOc1ccc(F)cc1-c1ccc(NC(=O)c2ccnn2C)nc1N [Example 147] | > 32 µM | 12 µM | – | – | – |
| COc1ccc(Cl)c(-c2ccc(NC(=O)c3ccnn3C(C)C)nc2N)c1 [Example 142] | 17 µM | 0.96 µM | – | – | – |
| COc1cc(OC)cc(C(=O)Nc2ccc(-c3cc(Cl)ccc3Cl)c(N)n2)c1 [Example 104] | – | 3.3 µM | 8 µM | – | – |
| Cc1nocc1C(=O)Nc1ccc(-c2cc(F)ccc2OC(C)C)c(N)n1 [Example 145] | 28 µM | 1.5 µM | – | – | – |
| COCCCOc1ccc(F)cc1-c1ccc(NC(=O)c2ccnn2C)nc1N [Example 153] | > 32 µM | – | – | – | 8.8 µM |
| COCCCOc1ccc(F)cc1-c1ccc(NC(=O)c2conc2C)nc1N [Example 152] | 31 µM | 1.9 µM | – | – | – |
| COc1cc(Cl)cc(-c2ccc(NC(=O)c3nonc3C)nc2N)c1Cl [Example 51, N-[6-Amino-5-(2,5-dichloro-3-methoxyphenyl)pyridin-2-yl]-4-methyl-1,2,5-oxadiazole-3-carboxamide] | – | 2.6 µM | 4.5 µM | – | – |
| Nc1nc(NC(=O)c2ccccc2Cl)ccc1-c1cc(Cl)ccc1Cl [Example 101] | – | 3.7 µM | 6.2 µM | – | – |
| Cn1nccc1C(=O)Nc1ccc(-c2cc(O)cc(Cl)c2Cl)c(N)n1 [Example 177] | 12 µM | 1.3 µM | – | – | – |
| CCOc1ccc(Cl)c(-c2ccc(NC(=O)c3conc3C)nc2N)c1 [Example 154] | 10 µM | 0.47 µM | – | – | – |

| SMILES | IC50 [1, 4] | IC50 [2, 5] | IC50 [3] | IC50 [1] | IC50 [2] |
| --- | --- | --- | --- | --- | --- |
| CCOc1ccc(Cl)c(-c2ccc(NC(=O)c3ccnn3C)nc2N)c1 [Example 150] | 19 µM | 2.5 µM | – | – | – |
| CCCCOc1ccc(F)cc1-c1ccc(NC(=O)c2ccnn2C)nc1N [Example 144] | 23 µM | 0.53 µM | – | – | – |
| Nc1nc(NC(=O)c2ccccc2)ccc1-c1ccccc1Cl [Example 98] | – | 2 µM | 10 µM | – | – |
| COCCOc1ccc(Cl)c(-c2ccc(NC(=O)c3ccnn3C)nc2N)c1 [Example 151] | > 32 µM | 5.1 µM | – | – | – |
| COc1ccc(Cl)c(-c2ccc(NC(=O)c3nonc3C)nc2N)c1 [Example 45, N-[6-Amino-5-(2-chloro-5-methoxyphenyl)pyridin-2-yl]-4-methyl-1,2,5-oxadiazole-3-carboxamide] | – | 2.6 µM | 13 µM | – | – |
| CC(C)Oc1ccc(F)cc1-c1ccc(NC(=O)c2ccnn2C)nc1N [Example 109, N-[6-amino-5-(5-fluoro-2-isopropoxyphenyl)pyridin-2-yl]-1-methyl-1H-pyrazole-5-carboxamide] | 27 µM | 5.7 µM | – | – | – |
| Cn1nncc1C(=O)Nc1ccc(-c2ccc(Cl)cc2Cl)c(N)n1 [Example 79, N-[6-Amino-5-(2,4-dichlorophenyl)pyridin-2-yl]-1-methyl-1H-1,2,3-triazole-5-carboxamide] | – | 5.8 µM | 22 µM | – | – |
| CCOc1ccc(OC(F)(F)F)c(-c2ccc(NC(=O)c3ccnn3C)nc2N)c1 [Example 110, N-{6-amino-5-[5-ethoxy-2-(trifluoromethoxy)phenyl]pyridin-2-yl}-1-methyl-1H-pyrazole-5-carboxamide] | 2.3 µM | 1.5 µM | – | – | – |
| COc1ccc(C(=O)Nc2ccc(-c3cc(Cl)ccc3Cl)c(N)n2)cc1OC [Example 103] | – | 4.1 µM | 8.4 µM | – | – |
| Nc1nc(NC(=O)c2ccno2)ccc1-c1ccccc1Cl [Example 77, N-[6-Amino-5-(2-chlorophenyl)pyridin-2-yl]isoxazole-5-carboxamide] | – | 5 µM | > 32 µM | – | – |
| COc1ccc(F)cc1-c1ccc(NC(=O)c2conc2C)nc1N [Example 123] | > 32 µM | 2.4 µM | – | – | – |
| Cn1nccc1C(=O)Nc1ccc(-c2ccccc2CC(F)(F)F)c(N)n1 [Example 139] | 7.5 µM | 2.1 µM | – | – | – |
| COc1ccc(C(=O)Nc2ccc(-c3cc(Cl)ccc3Cl)c(N)n2)c(OC)c1 [Example 105] | – | 3.5 µM | 7.7 µM | – | – |
| Nc1nc(NC(=O)c2ccon2)ccc1-c1cc(Cl)ccc1Cl [Example 72, N-[6-Amino-5-(2,5-dichlorophenyl)pyridin-2-yl]isoxazole-3-carboxamide] | – | 8.6 µM | 15 µM | – | – |
| CCOc1ccccc1-c1ccc(NC(=O)c2ccnn2C)nc1N [Example 130] | 22 µM | 2.3 µM | – | – | – |
| COCCCOc1ccccc1-c1ccc(NC(=O)c2conc2C)nc1N [Example 156] | 31 µM | 3.1 µM | – | – | – |
| Cc1nonc1C(=O)Nc1ccc(-c2cc(Cl)ccc2Cl)c(N)n1 [Example 44, N-[6-Amino-5-(2,5-dichlorophenyl)pyridin-2-yl]-4-methyl-1,2,5-oxadiazole-3-carboxamide] | – | 3.2 µM | 8.1 µM | – | – |
| COCc1ccc(Cl)c(-c2ccc(NC(=O)c3ccnn3C)nc2N)c1 [Example 141] | > 32 µM | 5.4 µM | – | – | – |
| Cc1nocc1C(=O)Nc1ccc(-c2cc(O)cc(Cl)c2Cl)c(N)n1 [Example 176] | 10 µM | 1.4 µM | – | – | – |
| Cc1ccc(OC(F)(F)F)c(-c2ccc(NC(=O)c3ccnn3C)nc2N)c1 [Example 137] | 18 µM | 1.2 µM | – | – | – |

| SMILES | IC50 [1, 4] | IC50 [2, 5] | IC50 [3] | IC50 [1] | IC50 [2] |
| --- | --- | --- | --- | --- | --- |
| CCOc1ccc(F)cc1-c1ccc(NC(=O)c2ccnn2C)nc1N [Example 132] | > 32 µM | 1.5 µM | – | – | – |
| Cn1nccc1C(=O)Nc1ccc(-c2ccccc2OCC2CC2)c(N)n1 [Example 143] | 24 µM | 0.97 µM | – | – | – |
| COCc1ccccc1-c1ccc(NC(=O)c2conc2C)nc1N [Example 129] | 20 µM | 3.5 µM | – | – | – |
| COC(C)COc1ccc(F)cc1-c1ccc(NC(=O)c2conc2C)nc1N (centres unmarked) [Example 159] | > 32 µM | 4.7 µM | – | – | – |
| COC(C)COc1ccccc1-c1ccc(NC(=O)c2conc2C)nc1N (centres unmarked) [Example 161] | > 32 µM | 6.7 µM | – | – | – |
| COCCOc1ccccc1-c1ccc(NC(=O)c2conc2C)nc1N [Example 149] | > 32 µM | 4 µM | – | – | – |
| COC(C)COc1ccc(F)cc1-c1ccc(NC(=O)c2ccnn2C)nc1N (centres unmarked) [Example 158] | > 32 µM | 15 µM | – | – | – |
| COCCOc1ccc(F)cc1-c1ccc(NC(=O)c2conc2C)nc1N [Example 169] | > 32 µM | 4.9 µM | – | – | – |
| COCCOc1ccc(Cl)c(-c2ccc(NC(=O)c3conc3C)nc2N)c1 [Example 170] | 21 µM | 0.9 µM | – | – | – |
| Cc1nocc1C(=O)Nc1ccc(-c2cc(F)ccc2OC2CCOC2)c(N)n1 (centres unmarked) [Example 167] | > 32 µM | 11 µM | – | – | – |
| Cc1nocc1C(=O)Nc1ccc(-c2ccccc2CC(F)(F)F)c(N)n1 [Example 146] | 13 µM | – | – | – | – |
| CCOc1ccc(F)cc1-c1ccc(NC(=O)c2conc2C)nc1N [Example 135] | 26 µM | 0.28 µM | – | – | – |
| COc1ccc(OC(F)(F)F)c(-c2ccc(NC(=O)c3conc3C)nc2N)c1 [Example 148] | 10 µM | 0.56 µM | – | – | – |
| COC(C)COc1ccccc1-c1ccc(NC(=O)c2ccnn2C)nc1N (centres unmarked) [Example 160] | > 32 µM | 13 µM | – | – | – |
| COCCCOc1ccccc1-c1ccc(NC(=O)c2ccnn2C)nc1N [Example 157] | > 32 µM | 9.5 µM | – | – | – |
| CCCOc1ccc(F)cc1-c1ccc(NC(=O)c2conc2C)nc1N [Example 162] | 7.7 µM | 0.09 µM | – | – | – |
| Cc1nocc1C(=O)Nc1ccc(-c2cc(Cl)cc(Cl)c2Cl)c(N)n1 [Example 28, N-[6-Amino-5-(2,3,5-trichlorophenyl)pyridin-2-yl]-3-methylisoxazole-4-carboxamide] | 9.5 µM | 0.67 µM | – | – | – |
| Cc1nocc1C(=O)Nc1ccc(-c2cc(Cl)ccc2OCC(F)(F)F)c(N)n1 [Example 163] | 9.9 µM | 0.48 µM | – | – | – |
| Cn1nccc1C(=O)Nc1ccc(-c2cc(Cl)cc(Cl)c2Cl)c(N)n1 [Example 4, N-[6-Amino-5-(2,3,5-trichlorophenyl)pyridin-2-yl]-1-methyl-1H-pyrazole-5-carboxamide] | – | 0.68 µM | – | – | – |
